Measurements taken from ChEMBL document CHEMBL1151108, “Plant antimutagenic agents, 1. General bioassay and isolation procedures” (J Nat Prod, 1988).

Legend:
Salmonella typhimurium [1] = experiment: Toxicity in Salmonella Typhimurium TA98 at 300 ug/plate in presence of liver S9 fraction by Ames test; assay type: organism-based; conditions: salmonella enterica subsp. enterica serovar typhimurium
Salmonella typhimurium [2] = experiment: Toxicity in Salmonella Typhimurium TA98 at 150 ug/plate in presence of liver S9 fraction by Ames test; assay type: organism-based; conditions: salmonella enterica subsp. enterica serovar typhimurium

Compound	Activity (Salmonella typhimurium [1])	Activity (Salmonella typhimurium [2])
C=C1CCC[C@]2(C)C[C@H]3OC(=O)[C@@H](C)[C@H]3C[C@@H]12 [DIHYDROISOALANTOLACTONE]	Non-toxic	Non-toxic
C=C1C(=O)O[C@@H]2C[C@@]3(C)CCCC(=C)[C@@H]3C[C@H]12 [ISOALANTOLACTONE]	Toxic	Toxic
